Like-named read-outs stand apart in the source and are kept apart here. Numbered stars: 1 amine (or outer) side, 2 acyl side, 3 side chain; on linkers, the order of the positions; unused ones are H or OH. Square brackets hold non-standard residues; d marks the D form. Side chains are listed from the residue outwards. Peptide text beside a SMILES is read from it. * marks the point of attachment. Ethylenediamine = C(CN[*:2])N[*:1]; Hyp = O=C(O)[C@@H]1C[C@@H](O)CN1; Phg = N[C@H](C(=O)O)c1ccccc1; CO = O=C([*:1])[*:2]; Bn = c1ccc(C*)cc1
Key:
[1] = target: T1, hPepT1 (SLC15A1) (Homo sapiens, UniProt P46059); experiment: Inhibition of Gly-Sar uptake in hPepT1 overexpressing CHO-K1 clones (semi-high-throughput 96-well assay); format: cell-based
T1 construct: host or cells: CHO-K1 (clones CHO-hPepT1-M5 and CHO-hPepT1-200)
T1 sequence (P46059 1-708): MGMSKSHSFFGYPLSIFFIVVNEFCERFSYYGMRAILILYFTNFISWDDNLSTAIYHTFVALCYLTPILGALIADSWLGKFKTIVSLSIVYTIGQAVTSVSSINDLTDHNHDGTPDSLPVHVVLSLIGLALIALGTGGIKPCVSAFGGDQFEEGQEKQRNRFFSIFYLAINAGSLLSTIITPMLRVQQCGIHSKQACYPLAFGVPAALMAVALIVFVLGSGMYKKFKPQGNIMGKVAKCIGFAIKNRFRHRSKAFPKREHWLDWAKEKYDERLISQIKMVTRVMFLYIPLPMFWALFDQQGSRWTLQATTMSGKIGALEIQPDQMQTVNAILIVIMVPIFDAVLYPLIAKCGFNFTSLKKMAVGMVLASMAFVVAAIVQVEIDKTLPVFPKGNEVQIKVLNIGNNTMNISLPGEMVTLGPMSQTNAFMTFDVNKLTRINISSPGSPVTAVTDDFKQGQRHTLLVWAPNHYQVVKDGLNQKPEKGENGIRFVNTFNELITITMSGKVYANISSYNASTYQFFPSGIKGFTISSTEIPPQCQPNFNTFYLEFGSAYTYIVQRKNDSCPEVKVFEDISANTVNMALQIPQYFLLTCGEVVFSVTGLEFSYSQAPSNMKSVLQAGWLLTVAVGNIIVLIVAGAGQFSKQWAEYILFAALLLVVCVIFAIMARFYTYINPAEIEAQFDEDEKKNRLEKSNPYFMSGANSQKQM
Procedure: In a second step, inhibition of hPepT1 by losartan, one of the strongest inhibitors of this transporter, was tested in both clones. Inhibition experiments were conducted as previously described at a Gly-Sar concentration of 20 µM [13]. In brief, cells were seeded in 96-well plates 1 d before the assay at a concentration of 5 × 10^4 per well. On the day of the inhibition experiment, cells were washed once with MES buffer (100 µL/well) and subsequently incubated with 20 µM Gly-Sar and losartan (0.1–5000 µM), all prepared in MES buffer. After an incubation period of 10 min at 37 °C on a rotary shaker (450 rpm), transport was terminated by removing the solution and washing the cells with ice-cold MES buffer thrice while the plate was kept on ice. Afterwards, cells were lysed in the 96-well cell culture plate with aqueous NH4OH (10%, 50 µL/well), and sample preparation was performed as described previously. Inhibition in the clone CHO-hPepT1-M5 was also tested with Gly-Pro (0.1–5000 µM) as described for losartan.
The cyclic peptides were first evaluated for hPepT1 inhibition with the semi-high-throughput assay in 96-well plates established and validated earlier, but using CHO-hPepT1-M5 instead of Caco-2 cells. Cells were seeded 2 d before the assay at a concentration of 5 × 10^4/well, and the assay was conducted as published previously. Each concentration was tested in octuplet, and each experiment performed thrice.
(§1) Nonlinear regression curves were calculated with GraphPad Prism version 9.3.1 (GraphPad Software Inc., La Jolla, CA, USA) using the four-parameter fit (sigmoidal dose-response curves with variable slope) for inhibition experiments of a one-phase association nonlinear curve fit for the Gly-Sar uptake. […] A p-value < 0.05 was considered significant.

[2] = target: T1, hPepT1 (SLC15A1); experiment: Uptake of cyclic peptides in CHO-hPepT1-M5 cells compared with parental CHO-K1 cells, with and without Gly-Pro; format: cell-based; conditions: for hPepT1 substrate characteristics (conclusion): uptake in CHO-hPepT1-M5 vs CHO-K1 cells, with and without Gly-Pro
Procedure: For investigating the possible hPepT1 substrate characteristics of the cyclic peptides, their uptake was measured in the CHO-hPepT1-M5 clone with and without inhibition by Gly-Pro and compared with the CHO-K1 parental clone.
For each sample, 5 × 10^5 cells were suspended in 1.5 mL low-binding reaction tubes and washed once in MES buffer. Subsequently, cells were incubated in 100 µL of the respective cyclic peptide solution in MES with or without 20 mM Gly-Pro at 37 °C for 10 min on a rotary shaker (450 rpm). Cells were then washed twice with 0.4 mL ice-cold MES buffer before further proceeding as described in Section 2.8. Each concentration was tested in triplicate, and the experiment was conducted at least thrice.
Cell lysis was performed with 50 µL of 10% aqueous ammonia, and the lysates acidified with 50 µL of 20% aqueous FA to ensure stability of the peptide therapeutics during sample processing. Sample preparation and UPLC–MS/MS measurements were performed as previously described for plasma.
as §1

[3] = oral, Beagle dogs; ref Sauter et al., unpublished data; cited from earlier work
[4] = CHO-hPepT1-M5 cells, 20 µM Gly-Sar, inhibitor 0.1-5000 µM, MES buffer pH 6.0, 10 min, 37 °C, UPLC-MS/MS, mean ± S.E.M. of three independent experiments, each concentration in sextuplets, read-out: IC50 for inhibition of the Gly-Sar uptake

IC50 [1, 4] [µM]	Inhibition of the Gly-Sar uptake, shape of inhibition curve ([1]; CHO-hPepT1-200 cells, 20 µM Gly-Sar, losartan 0.1-5000 µM, MES buffer pH 6.0, 10 min, 37 °C, compared with CHO-hPepT1-M5)	SMILES	hPepT1 substrate characteristics (conclusion) [2]	Bioavailability [3] [%]	IC50 [1] [µM]	Difference in uptake between cells without (CHO-K1) and with hPepT1 overexpression (CHO-hPepT1-M5) ([2]; 5 x 10^5 cells in suspension, MES buffer pH 6, 10 min, 37 °C, intracellular quantification by UPLC-MS/MS, three experiments in triplicate, two-way ANOVA with Bonferroni post hoc test)	Influence of the PepT1 inhibitor Gly-Pro on the uptake ([2]; with or without 20 mM Gly-Pro, CHO-hPepT1-M5 and CHO-K1 cells, MES buffer pH 6, 10 min, 37 °C, UPLC-MS/MS, three experiments in triplicate)
196 ± 41		NCC(=O)N1CCC[C@H]1C(=O)O [Gly-Pro] (H-Gly-Pro-OH)					
37 ± 4.8	the inhibition curve was much flatter	CCCCc1nc(Cl)c(CO)n1Cc1ccc(-c2ccccc2-c2nn[nH]n2)cc1 [losartan]					
		C[C@@H](O)[C@@H]1NC(=O)[C@H](CCCCN)NC(=O)[C@@H](Cc2c[nH]c3ccccc23)NC(=O)[C@H](Cc2ccccc2)NC(=O)[C@@H](NC(=O)[C@H](N)Cc2ccccc2)CSSC[C@@H](C(=O)N[C@H](CO)[C@@H](C)O)NC1=O [octreotide]	not transported by hPepT1	> 1	4200 ± 1600		
		NCCCC[C@@H]1NC(=O)[C@@H](Cc2c[nH]c3ccccc23)NC(=O)[C@H](c2ccccc2)NC(=O)[C@@H]2C[C@@H](OC(=O)NCCN)CN2C(=O)[C@H](Cc2ccccc2)NC(=O)[C@H](Cc2ccc(OCc3ccccc3)cc2)NC1=O [pasireotide] (cyclo([Hyp]([CO-Ethylenediamine])[Phg][dW]KY(Bn)F))	not transported by hPepT1	> 1	530 ± 110	no obvious difference in the uptake	no significant influence on the uptake
